From ChEMBL document CHEMBL1132001, “Generation of an Ugi library of phosphate mimic-containing compounds and identification of novel dual specific phosphatase inhibitors” (Bioorg Med Chem Lett, 1999)

Tests used:
[1] = Compound was evaluated for its activity against PTP1B (a tyrosine phosphatase)
[2] = biological target: Dual specificity protein phosphatase 3 (Homo sapiens) (UniProt P51452); assay: Compound was evaluated for its activity against VHR
Homo sapiens = organism: Homo sapiens; assay: Inhibition of dual specificity Cell division cycle 25

Chain of Dual specificity protein phosphatase 3 (Homo sapiens) (P51452 whole entry, looked up): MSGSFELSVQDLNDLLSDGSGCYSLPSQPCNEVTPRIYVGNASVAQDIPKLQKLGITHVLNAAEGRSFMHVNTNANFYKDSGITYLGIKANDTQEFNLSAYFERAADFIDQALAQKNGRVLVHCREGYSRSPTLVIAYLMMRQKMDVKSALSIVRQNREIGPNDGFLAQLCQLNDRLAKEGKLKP

Compound | Activity [1] | Activity [2] | Activity (Homo sapiens)
CC(C)=CCCC(C)C(C(=O)NC1CCCCC1)N(Cc1ccc2c(c1)OCO2)C(=O)c1ccc(CP(=O)(O)O)cc1 (centres undefined) | 73 µM | 19 µM | 23 µM
O=C(O)C(Oc1ccc(C(C(=O)NC2CCCCC2)N(Cc2ccc3c(c2)OCO3)C(=O)c2ccc(CP(=O)(O)O)cc2)cc1)C(=O)O (centres undefined) | 107 µM | 11 µM | 3 µM
O=C(NC1CCCCC1)C(c1ccnc2ccccc12)N(CCc1c[nH]c2ccccc12)C(=O)c1ccc(CP(=O)(O)O)cc1 (centres undefined) | > 160 µM | 87 µM | 16 µM
Cc1ccc(S(=O)(=O)CNC(=O)C(c2ccc(OCP(=O)(O)O)cc2)N(CCc2c[nH]c3ccccc23)C(=O)c2cc(Br)cc(Br)c2O)cc1 (centres undefined) | 95 µM | > 120 µM | 10 µM
CC(C)=CCCC(C)C(C(=O)NC1CCCCC1)N(CCc1c[nH]c2ccccc12)C(=O)c1ccc(CP(=O)(O)O)cc1 (centres undefined) | 61 µM | 17 µM | 23 µM
CC(C)=CCCC(C)C(C(=O)NC1CCCCC1)N(CCc1c[nH]c2ccccc12)C(=O)c1ccc(C(F)(F)P(=O)(O)O)cc1 (centres undefined) |  |  | 27 µM
O=C(O)C(Oc1ccc(C(=O)N(Cc2ccc3c(c2)OCO3)C(C(=O)NC2CCCCC2)c2ccc(OC(C(=O)O)C(=O)O)cc2)cc1)C(=O)O (centres undefined) | 89 µM | 9 µM | 3 µM
O=C(NC(Cc1ccc(O)cc1)C(=O)N(CCc1c[nH]c2ccccc12)C(C(=O)NCCN1CCOCC1)c1ccc(OCP(=O)(O)O)cc1)OCC1c2ccccc2-c2ccccc21 (centres undefined) | 16 µM | 6.1 µM | 8 µM
O=C(O)CNC(=O)C(c1nccs1)N(Cc1ccc2c(c1)OCO2)C(=O)c1ccc(CP(=O)(O)O)cc1 (centres undefined) | > 96 µM | > 9 µM | 35 µM
O=C(O)C(Oc1ccc(C(=O)N(Cc2ccc3c(c2)OCO3)C(C(=O)NC2CCCCC2)c2ccc(OCP(=O)(O)O)cc2)cc1)C(=O)O (centres undefined) | 82 µM | 5 µM | 0.7 µM
CC(C)/C=C\CC(C)C(C(=O)NCC(=O)O)N(CCc1c[nH]c2ccccc12)C(=O)c1cc(Br)cc(Br)c1O (centres undefined) |  |  | 15 µM
